Experimental data as given in PubChem BioAssay AID1963986 (Molecular Pharmacology Branch, DTP, NCI, 2024).

Tested on: 171881-019-R-J1-PDC tumor spheroid viability
Assay: Anticancer human tumor 171881-019-R-J1-PDC patient-derived invasive breast carcinoma cell line growth inhibition [PI3K]
Settings: spheroids with HUVEC and MSC; for IC50: curve of first compound; for viability, T/C: stronger effect = lower value
From the text: Combinatorial screen of targeted agents with the PI3K inhibitors inavolisib, alpelisib, duvelisib, and copanlisib in multi-cell type tumor spheroids
A high-throughput screen of multi-cell type tumor spheroids was designed to identify active combinations of targeted small molecules and PI3K pathway inhibitors. Complex spheroids include a stromal component modeled by human endothelial cells (HUVEC) and fibroblasts modeled by human mesenchymal stem cells (MSCs). The concentration ranges selected for each drug and investigational agent were based upon clinically achievable concentrations if the clinical Cmax of the agent was known.
Compounds. The drugs and investigational agents: inavolisib (NSC800729), alpelisib (NSC765974), duvelisib (NSC772469), copanlisib (NSC816437), ipatasertib (NSC767898), afuresertib (NSC778305), talazoparib (NSC767125), sapanisertib (NSC764658), selumetinib (NSC741078), tovorafenib (DAY101, NSC766906), vemurafenib (NSC761431), ravoxertinib (NSC781343), sotorasib (NSC818433), MRTX1133 (NSC 836407), abemaciclib (NSC 768073), palbociclib (NSC758247), venetoclax (NSC 766270), SY5609 (NSC837396), enzalutamide (NSC755605), and darolutamide (NSC825331), were obtained from the National Cancer Institute (NCI) Developmental Therapeutics Program Chemical Repository. The FDA-approved anticancer drug set is available from the NCI Developmental Therapeutics Program. […] The stock solutions were prepared in dimethyl sulfoxide (DMSO, Sigma-Aldrich, St. Louis, MO, cat. D2650) at 800-fold the tested concentration and stored at -70 degrees C prior to their use. All drugs and investigational agents were tested over a range starting from a high concentration at or near the clinical Cmax and decreasing in half-log increments. If the clinical Cmax for an agent had not been determined, the highest concentration tested was 10 microM.
Cell Culture. All cells were maintained in an incubator at 37 degrees C and 5% CO2 with 95% humidity. The PDC lines were cultured according to standard operating procedures established by the NCI PDMR (https://pdmr.cancer.gov/sops/default.htm). All PDCs were thawed and cultured in Matrigel-coated flasks prepared with a working solution of 1X Ham's F-12 nutrient mix, without supplementation (Invitrogen, Waltham, MA, cat. 11765054), 100 U/mL penicillin-streptomycin (Invitrogen, cat. 15140122), and 2.5% Matrigel (Corning Inc., Corning, NY, cat. 354248) for the first three passages. The 354836-022-R-J1-PDC, 475296-252-R-J1-PDC, and 997726-040-R-J2-PDC lines were cultured in 6A media, which includes advanced DMEM/F-12 (Thermo Fisher Scientific, cat. 12634028), 10 mM HEPES (Thermo Fisher Scientific, cat. 15630080), 1X GlutaMAX supplement (Thermo Fisher Scientific, cat. 35050061), 0.1 mg/mL primocin (InvivoGen, San Diego, CA, cat. ant-pm-2), 10% defined fetal bovine serum, heat inactivated (HyClone Laboratories Inc., Logan, UT, cat. SH30070.03HI), 50% L-WRN conditioned media (ATCC, cat. CRL-3276), 1.25 mM N-Acetyl-L-cysteine (Sigma-Aldrich, cat. A9165), 10 mM nicotinamide (Sigma-Aldrich, cat. N0636), 1X B-27 supplement (Thermo Fisher Scientific, cat. 17504044), 1X N-2 supplement (Thermo Fisher Scientific, cat. 17502048), and 10 microM Y-27632 dihydrochloride (Tocris Bioscience, Bristol, United Kingdom, cat. 1254). The 624824-186-R-J2-PDC line was cultured in 6C/Colon 1B media, which includes all 6A media components plus 50 ng/mL human EGF recombinant protein (Thermo Fisher Scientific, cat. PHG0311). […]
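Further: spheroids exposed to compound for 7 days before viability read.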
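Wherever viability, T/C is given: 100% = DMSO vehicle-treated spheroids.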

For `CC1(C)CCC(Nc2ncc(C(F)(F)F)c(-c3c[nH]c4c(P(C)(C)=O)c(C#N)ccc34)n2)CN1` (configuration not stated) + Cc1nc(NC(=O)N2CCCC2C(N)=O)sc1-c1ccnc(C(C)(C)C(F)(F)F)c1, which IC50 (second compound 0.0316 µM) is on record?
Its IC50 is 5340 nM.

What about the IC50 (second compound 0.1 µM) of the same molecule?
Its IC50 is 4400 nM.

And the IC50 (second compound 0.316 µM)?
Its IC50 is 1030 nM.

And the IC50 (second compound 1 µM)?
The IC50 was under 31.6 nM.

What about the IC50 (second compound 3.16 µM) of the same molecule?
Its IC50 is under 31.6 nM.

What about the IC50 (second compound 10 µM) of the same molecule?
The IC50 was under 31.6 nM.

And the viability, T/C (second compound 0.0316 µM, first compound 0.0316 µM)?
The viability, T/C was 66.7%.

What about the viability, T/C (second compound 0.0316 µM, first compound 0.1 µM) of the same molecule?
The viability, T/C was 65%.

What about the viability, T/C (second compound 0.0316 µM, first compound 0.316 µM) of the same molecule?
Its viability, T/C is 73.8%.

And the viability, T/C (second compound 0.0316 µM, first compound 1 µM)?
The viability, T/C was 79.6%.

What about the viability, T/C (second compound 0.0316 µM, first compound 3.16 µM) of the same molecule?
The viability, T/C was 77.5%.

What about the viability, T/C (second compound 0.0316 µM, first compound 10 µM) of the same molecule?
The viability, T/C was 22.9%.

And the viability, T/C (second compound 0.1 µM, first compound 0.0316 µM)?
Its viability, T/C is 59.4%.

What about the viability, T/C (second compound 0.1 µM, first compound 0.1 µM) of the same molecule?
Its viability, T/C is 65%.

What about the viability, T/C (second compound 0.1 µM, first compound 0.316 µM) of the same molecule?
Its viability, T/C is 62.9%.

What about the viability, T/C (second compound 0.1 µM, first compound 1 µM) of the same molecule?
Its viability, T/C is 71.4%.

What about the viability, T/C (second compound 0.1 µM, first compound 3.16 µM) of the same molecule?
Its viability, T/C is 63.4%.

What about the viability, T/C (second compound 0.1 µM, first compound 10 µM) of the same molecule?
The viability, T/C was 16.3%.

And the viability, T/C (second compound 0.316 µM, first compound 0.0316 µM)?
The viability, T/C was 46.7%.

What about the viability, T/C (second compound 0.316 µM, first compound 0.1 µM) of the same molecule?
Its viability, T/C is 49%.

And the viability, T/C (second compound 0.316 µM, first compound 0.316 µM)?
The viability, T/C was 49.6%.

What about the viability, T/C (second compound 0.316 µM, first compound 1 µM) of the same molecule?
Its viability, T/C is 55.5%.

What about the viability, T/C (second compound 0.316 µM, first compound 3.16 µM) of the same molecule?
Its viability, T/C is 47.8%.

What about the viability, T/C (second compound 0.316 µM, first compound 10 µM) of the same molecule?
Its viability, T/C is 7.89%.

What about the viability, T/C (second compound 1 µM, first compound 0.0316 µM) of the same molecule?
Its viability, T/C is 31.4%.

What about the viability, T/C (second compound 1 µM, first compound 0.1 µM) of the same molecule?
Its viability, T/C is 30.6%.

And the viability, T/C (second compound 1 µM, first compound 0.316 µM)?
The viability, T/C was 33.4%.

What about the viability, T/C (second compound 1 µM, first compound 1 µM) of the same molecule?
Its viability, T/C is 32.7%.

And the viability, T/C (second compound 1 µM, first compound 3.16 µM)?
Its viability, T/C is 28.7%.

What about the viability, T/C (second compound 1 µM, first compound 10 µM) of the same molecule?
Its viability, T/C is 3.22%.

What about the viability, T/C (second compound 3.16 µM, first compound 0.0316 µM) of the same molecule?
The viability, T/C was 15.9%.

What about the viability, T/C (second compound 3.16 µM, first compound 0.1 µM) of the same molecule?
Its viability, T/C is 17%.

What about the viability, T/C (second compound 3.16 µM, first compound 0.316 µM) of the same molecule?
Its viability, T/C is 17.7%.

What about the viability, T/C (second compound 3.16 µM, first compound 1 µM) of the same molecule?
The viability, T/C was 18.8%.

What about the viability, T/C (second compound 3.16 µM, first compound 3.16 µM) of the same molecule?
The viability, T/C was 13.3%.

And the viability, T/C (second compound 3.16 µM, first compound 10 µM)?
The viability, T/C was 1.08%.

What about the viability, T/C (second compound 10 µM, first compound 0.0316 µM) of the same molecule?
The viability, T/C was 4.21%.

What about the viability, T/C (second compound 10 µM, first compound 0.1 µM) of the same molecule?
Its viability, T/C is 4.48%.

What about the viability, T/C (second compound 10 µM, first compound 0.316 µM) of the same molecule?
Its viability, T/C is 5.01%.

And the viability, T/C (second compound 10 µM, first compound 1 µM)?
The viability, T/C was 5.05%.

What about the viability, T/C (second compound 10 µM, first compound 3.16 µM) of the same molecule?
Its viability, T/C is 2.85%.

And the viability, T/C (second compound 10 µM, first compound 10 µM)?
The viability, T/C was 0.32%.
